≈ marks a conversion by molar mass, not a printed value. Each block holds one compound with its values, some of them ahead of it. Calls of active or inactive are those of the source. The calls are words filed in the database; no cut-off is given here.
Key:
[1] = Aqueous solubility of compound after 24 hrs by HPLC analysis; type: physicochemical; conditions: for solubility: buffer, 24 h; for solubility at 24 h: aqueous
[2] = system: Mus musculus; assay: Anti-inflammatory activity against DSS-induced ulcerative colitis C57BL/6 mouse model assessed as increase in colon length administered via gavage once a day for 14 consecutive days starting from second day post DSS challenge; type: functional, organism-based
[3] = Elimination rate constant in Wistar rat plasma at 3 uM measured up to 180 mins by LC-MS/MS analysis; type: ADME, cell-free
[4] = Half life in Wistar rat plasma at 3 uM measured up to 180 mins by LC-MS/MS analysis; type: ADME, cell-free
[5] = Elimination rate constant in Wistar rat liver microsomes at 1 uM measured up to 120 mins by LC-MS/MS analysis; type: ADME, Microsome
[6] = Half life in Wistar rat liver microsomes at 1 uM measured up to 120 mins by LC-MS/MS analysis; type: ADME, Microsome; conditions: 2 h
[7] = system: Mus musculus; assay: Anti-inflammatory activity against DSS-induced ulcerative colitis C57BL/6 mouse model assessed as colon length at 100 mg/kg, ig administered via gavage once a day for 14 consecutive days starting from second day post DSS challenge (reference value: 5.93 +/- 0.52 cm); type: functional
[8] = Metabolic stability in Wistar rat plasma assessed as compound remaining at 3 uM after 5 mins by LC-MS/MS analysis relative to control; type: ADME, cell-free; conditions: read-out: Stability
[9] = Metabolic stability in Wistar rat plasma assessed as compound remaining at 3 uM after 10 mins by LC-MS/MS analysis relative to control; type: ADME, cell-free; conditions: read-out: Stability
[10] = Metabolic stability in Wistar rat plasma assessed as compound remaining at 3 uM after 20 mins by LC-MS/MS analysis relative to control; type: ADME, cell-free; conditions: read-out: Stability
[11] = Metabolic stability in Wistar rat plasma assessed as compound remaining at 3 uM after 40 mins by LC-MS/MS analysis relative to control; type: ADME, cell-free; conditions: read-out: Stability
[12] = Metabolic stability in Wistar rat plasma assessed as compound remaining at 3 uM after 60 mins by LC-MS/MS analysis relative to control; type: ADME, cell-free; conditions: read-out: Stability
[13] = Metabolic stability in Wistar rat plasma assessed as compound remaining at 3 uM after 90 mins by LC-MS/MS analysis relative to control; type: ADME, cell-free; conditions: read-out: Stability
[14] = Metabolic stability in Wistar rat plasma assessed as compound remaining at 3 uM after 120 mins by LC-MS/MS analysis relative to control; type: ADME, cell-free; conditions: read-out: Stability
[15] = Metabolic stability in Wistar rat plasma assessed as compound remaining at 3 uM after 180 mins by LC-MS/MS analysis relative to control; type: ADME, cell-free; conditions: read-out: Stability
[16] = Metabolic stability in Wistar rat liver microsomes assessed as compound remaining at 1 uM after 5 mins by LC-MS/MS analysis relative to control; type: ADME, Microsome; conditions: read-out: Stability
[17] = Metabolic stability in Wistar rat liver microsomes assessed as compound remaining at 1 uM after 10 mins by LC-MS/MS analysis relative to control; type: ADME, Microsome; conditions: read-out: Stability
[18] = Metabolic stability in Wistar rat liver microsomes assessed as compound remaining at 1 uM after 20 mins by LC-MS/MS analysis relative to control; type: ADME, Microsome; conditions: read-out: Stability
[19] = Metabolic stability in Wistar rat liver microsomes assessed as compound remaining at 1 uM after 30 mins by LC-MS/MS analysis relative to control; type: ADME, Microsome; conditions: read-out: Stability
[20] = Metabolic stability in Wistar rat liver microsomes assessed as compound remaining at 1 uM after 40 mins by LC-MS/MS analysis relative to control; type: ADME, Microsome; conditions: read-out: Stability
[21] = Metabolic stability in Wistar rat liver microsomes assessed as compound remaining at 1 uM after 60 mins by LC-MS/MS analysis relative to control; type: ADME, Microsome; conditions: read-out: Stability
[22] = Metabolic stability in Wistar rat liver microsomes assessed as compound remaining at 1 uM after 90 mins by LC-MS/MS analysis relative to control; type: ADME, Microsome; conditions: read-out: Stability
[23] = Metabolic stability in Wistar rat liver microsomes assessed as compound remaining at 1 uM after 120 mins by LC-MS/MS analysis relative to control; type: ADME, Microsome; conditions: read-out: Stability
[24] = system: Mus musculus; assay: Anti-inflammatory activity against DSS-induced ulcerative colitis C57BL/6 mouse model assessed as colon length at 100 mg/kg, ig administered for 7 consecutive days followed by 7 days treatment with drinking water followed by three additional DSS treatment cycles (reference value: 5.93 +/- 0.52 cm); type: functional
[25] = Ratio of compound t1/2 to myricetin t1/2 in Wistar rat plasma at 3 uM measured up to 180 mins by LC-MS/MS analysis; type: ADME, cell-free; conditions: 3 h
[26] = system: Mus musculus; assay: Anti-inflammatory activity against DSS-induced ulcerative colitis C57BL/6 mouse model assessed as colon length at 50 mg/kg, ig administered via gavage once a day for 14 consecutive days starting from second day post DSS challenge (reference value: 5.93 to 7.1 cm); type: functional
[27] = system: Mus musculus; assay: Anti-inflammatory activity against DSS-induced ulcerative colitis C57BL/6 mouse model assessed as mild cellular infiltration in colon at 50 mg/kg, ig administered via gavage once a day for 14 consecutive days starting from second day post DSS challenge by H and E staining based analysis; type: functional, organism-based
[28] = system: Mus musculus; assay: Anti-inflammatory activity against DSS-induced ulcerative colitis C57BL/6 mouse model assessed as decrease in inflammatory score at 50 mg/kg, ig administered via gavage once a day for 14 consecutive days starting from second day post DSS challenge; type: functional, organism-based
[29] = Toxicity in po dosed mouse; type: organism-based; conditions: in vivo
[30] = Ratio of compound t1/2 to myricetin t1/2 in Wistar rat liver microsomes at 1 uM measured up to 120 mins by LC-MS/MS analysis; type: ADME, Microsome; conditions: 2 h
[31] = Ratio of compound solubility to myricetin solubility in water after 24 hrs by HPLC analysis; type: physicochemical; conditions: buffer

SMILES: Nc1ccc(O)c(C(=O)O)c1 [MESALAMINE]
- Activity [24]: 7.15 cm

SMILES: O=c1c(O[C@@H]2O[C@H](CO)[C@@H](O[C@@H]3O[C@H](CO)[C@H](O)[C@H](O)[C@H]3O)[C@H](O)[C@H]2O)c(-c2cc(O)c(O)c(O)c2)oc2cc([O-])cc(O)c12.[Na+]
- Ratio [25]: 10
- solubility at 24 h [1]: > 100000 µg/mL
- k el at 3 h, 3 µM [3]: 0.000167 s⁻¹
- half-life at 3 µM [4]: 2.42 h
- k el at 2 h, 1 µM [5]: 0.000167 s⁻¹
- t1/2 [6]: 6.8098 h
- Activity [26]: 8.11 - 10.6 cm
- Activity [27]: Active
- inhibition [28]: Active
- LD50 [29]: > 5000 mg/kg
- remaining at 5 min, 3 µM [8]: 99.7%
- remaining at 10 min, 3 µM [9]: 88.9%
- remaining at 20 min, 3 µM [10]: 79.8%
- remaining at 40 min, 3 µM [11]: 82.4%
- remaining at 1 h, 3 µM [12]: 67.7%
- remaining at 1.5 h, 3 µM [13]: 67.8%
- remaining at 2 h, 3 µM [14]: 55%
- remaining at 3 h, 3 µM [15]: 58.4%
- remaining at 5 min, 1 µM [16]: 96.6%
- remaining at 10 min, 1 µM [17]: 89.7%
- remaining at 20 min, 1 µM [18]: 82.5%
- remaining at 0.5 h, 1 µM [19]: 87.2%
- remaining at 40 min, 1 µM [20]: 87.5%
- remaining at 1 h, 1 µM [21]: 83.5%
- remaining at 1.5 h, 1 µM [22]: 78.1%
- remaining at 2 h, 1 µM [23]: 76.1%
- Ratio [30]: 20
- Ratio [31]: > 7000

SMILES: CC(=O)OC[C@H]1O[C@@H](O[C@H]2[C@H](OC(C)=O)[C@@H](OC(C)=O)[C@H](Oc3c(-c4cc(OCc5ccccc5)c(OCc5ccccc5)c(OCc5ccccc5)c4)oc4cc(OCc5ccccc5)cc(O)c4c3=O)O[C@@H]2COC(C)=O)[C@H](OC(C)=O)[C@@H](OC(C)=O)[C@H]1OC(C)=O
- solubility [1]: < 0.1 µg/mL
- Activity [2]: Active

The next lines start with results.

- solubility [1]: < 0.1 µg/mL
SMILES: O=C(Oc1c(-c2cc(O)c(O)c(O)c2)oc2cc(O)cc(OC(=O)c3ccccc3O)c2c1=O)c1ccccc1O
- Activity [2]: Active

- solubility at 24 h [1]: 14 µg/mL (≈ 44 µM)
- k el at 3 h, 3 µM [3]: 0.000833 s⁻¹
- half-life at 3 µM [4]: 0.234 h
- k el at 2 h, 1 µM [5]: 0.0005 s⁻¹
- t1/2 [6]: 0.3397 h
- remaining at 5 min, 3 µM [8]: 98.1%
- remaining at 10 min, 3 µM [9]: 89.2%
- remaining at 20 min, 3 µM [10]: 62.1%
- remaining at 40 min, 3 µM [11]: 19%
- remaining at 1 h, 3 µM [12]: 5.81%
- remaining at 1.5 h, 3 µM [13]: 0.96%
- remaining at 2 h, 3 µM [14]: 1.23%
- remaining at 3 h, 3 µM [15]: 0.53%
- remaining at 5 min, 1 µM [16]: 81.3%
- remaining at 10 min, 1 µM [17]: 55.9%
- remaining at 20 min, 1 µM [18]: 31.6%
- remaining at 0.5 h, 1 µM [19]: 18.1%
- remaining at 40 min, 1 µM [20]: 8.01%
- remaining at 1 h, 1 µM [21]: 4.85%
- remaining at 1.5 h, 1 µM [22]: 3.32%
- remaining at 2 h, 1 µM [23]: 1.9%
SMILES: O=c1c(O)c(-c2cc(O)c(O)c(O)c2)oc2cc(O)cc(O)c12 [MYRICETIN]
- Activity [7]: 6.55 cm

- solubility [1]: < 0.02 µg/mL
SMILES: O=C(Oc1cc(OC(=O)c2ccccc2O)c2c(=O)c(OC(=O)c3ccccc3O)c(-c3cc(OC(=O)c4ccccc4O)c(OC(=O)c4ccccc4O)c(OC(=O)c4ccccc4O)c3)oc2c1)c1ccccc1O
- Activity [2]: Active

- solubility at 24 h [1]: 1390 µg/mL (≈ 1480 µM)
SMILES: CC(=O)OC[C@H]1O[C@@H](O[C@H]2[C@H](OC(C)=O)[C@@H](OC(C)=O)[C@H](Oc3c(-c4cc(O)c(O)c(O)c4)oc4cc(O)cc(O)c4c3=O)O[C@@H]2COC(C)=O)[C@H](OC(C)=O)[C@@H](OC(C)=O)[C@H]1OC(C)=O
- Activity [2]: Active

Reference: ChEMBL document CHEMBL4393682, “Development of M10, myricetin-3-O-β-d-lactose sodium salt, a derivative of myricetin as a potent agent of anti-chronic colonic inflammation” (Eur J Med Chem, 2019)
